From patent US8546424B2, “Acetylene derivatives of 5-phenyl-pyrazolopyridine, preparation thereof, and therapeutic use thereof” (Sanofi, priority 2009, dated 2013) come the findings set out here.

The target in one data set is T1, mouse Nurr1 receptor (Mus musculus, UniProt Q06219).
T1 construct: endogenously expressing the mouse Nurr1 receptor; host or cells: Neuro-2A (N2A) mouse neuroblastoma cells stably transfected with 8NBRE-luciferase
T1 sequence (Q06219 whole entry): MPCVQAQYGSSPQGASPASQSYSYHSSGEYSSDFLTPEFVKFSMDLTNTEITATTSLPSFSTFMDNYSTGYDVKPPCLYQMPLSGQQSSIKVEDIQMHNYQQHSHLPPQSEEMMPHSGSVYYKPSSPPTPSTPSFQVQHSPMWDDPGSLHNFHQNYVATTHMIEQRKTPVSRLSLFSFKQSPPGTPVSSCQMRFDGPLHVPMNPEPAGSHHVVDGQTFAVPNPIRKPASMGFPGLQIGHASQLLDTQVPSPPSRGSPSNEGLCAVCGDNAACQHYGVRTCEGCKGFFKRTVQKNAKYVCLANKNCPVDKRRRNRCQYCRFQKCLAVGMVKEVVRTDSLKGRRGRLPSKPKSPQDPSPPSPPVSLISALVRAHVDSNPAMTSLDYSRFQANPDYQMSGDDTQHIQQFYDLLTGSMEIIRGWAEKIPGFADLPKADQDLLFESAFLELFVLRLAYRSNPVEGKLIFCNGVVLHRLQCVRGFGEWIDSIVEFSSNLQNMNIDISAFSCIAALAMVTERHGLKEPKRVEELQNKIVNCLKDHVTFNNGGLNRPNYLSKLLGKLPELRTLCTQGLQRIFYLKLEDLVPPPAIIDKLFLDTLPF
As to the kind of experiment: in vitro activity on N2A cells (8NBRE-luciferase reporter). The settings on record: N2A-8NBRE cells, 24 hours incubation. In kind it is cell-based. Here is the method:
The compounds according to the invention have formed the subject of pharmacological assays which make it possible to determine their modulatory effect on NOT. Evaluation of the in vitro Activity on N2A Cells
The activity of the compounds according to the invention was evaluated on a cell line (N2A) endogenously expressing the mouse Nurr1 receptor and stably transfected with the NOT binding response element (NBRE) coupled to the luciferase reporter gene. The assays were carried out according to the procedure described below.
The Neuro-2A cell line comes from a standard commercial source (ATCC). The Neuro-2A clone was obtained, from a spontaneous tumour originating from an A albino mouse strain, by R. J Klebe et al. This Neuro-2A line is subsequently stably transfected with 8NBRE-luciferase. The N2A-8NBRE cells are cultured until confluence in 75 cm^2 culture flasks containing DMEM supplemented with 10% of foetal calf serum, 4.5 g/l of glucose and 0.4 mg/ml of geneticin. After a week of culture, the cells are recovered with 0.25% trypsin for 30 seconds and then resuspended in DMEM without phenol red, containing 4.5 g/l of glucose and 10% of Hyclone delipidized serum, and deposited into transparent-bottom 96-well white plates. […] The plates are subsequently measured in a luminescence counter for microplates after having been sealed with an adhesive film. […]
(In general: In a reporter assay the amount or activity of a reporter protein is the signal.)
`C#CC(O)c1cccc(-c2ccn3nc(-c4ccc(F)cc4)cc3c2)c1` (racemic) [Compound 2, 1-{3-[2-(4-Fluorophenyl)pyrazolo[1,5-a]pyridin-5-yl]phenyl}prop-2-yn-1-ol]: the EC50 worked out at 3 nM.

Tested on in a further data set: not given
Assay: not given
Settings: not given
Turning to `C#CC(O)c1cccc(-c2ccn3nc(-c4ccc(Cl)cc4)cc3c2)c1` (racemic) [Compound 1, 1-{3-[2-(4-Chlorophenyl)pyrazolo[1,5-a]pyridin-5-yl]phenyl}prop-2-yn-1-ol], the melting point lay within 195 to 197 °C.

As to `C#CC(O)c1cccc(-c2ccn3nc(-c4ccc(F)cc4)cc3c2)c1` (racemic) [Compound 2, 1-{3-[2-(4-Fluorophenyl)pyrazolo[1,5-a]pyridin-5-yl]phenyl}prop-2-yn-1-ol], the melting point was in the range of 192 to 194 °C.

As for `CC#CC(O)c1cccc(-c2ccn3nc(-c4ccc(F)cc4)cc3c2)c1` (racemic) [Compound 3, 1-{3-[2-(4-Fluorophenyl)pyrazolo[1,5-a]pyridin-5-yl]phenyl}but-2-yn-1-ol], the melting point fell in the range of 164 to 166 °C.

Consider `C#CC(C)(O)c1cccc(-c2ccn3nc(-c4ccc(F)cc4)cc3c2)c1` (racemic) [Compound 4, 2-{3-[2-(4-Fluorophenyl)pyrazolo[1,5-a]pyridin-5-yl]phenyl}but-3-yn-2-ol], for which the melting point was in the range of 215 to 217 °C.

The molecule `C#CC(O)c1ccccc1-c1ccn2nc(-c3ccc(F)cc3)cc2c1` (racemic) [Compound 5, 1-{2-[2-(4-Fluorophenyl)pyrazolo[1,5-a]pyridin-5-yl]phenyl}prop-2-yn-1-ol] returned a melting point of 104 to 106 °C.

As to `C#CC(O)c1c(F)ccc(-c2ccn3nc(-c4ccc(F)cc4)cc3c2)c1F` (racemic) [Compound 6, 1-{2,6-Difluoro-3-[2-(4-fluorophenyl)pyrazolo[1,5-a]pyridin-5-yl]-phenyl}prop-2-yn-1-ol], the melting point lay in the range of 151 to 153 °C.

For the molecule `C#CC(O)c1cccc(-c2ccn3nc(-c4ccccc4F)cc3c2)c1` (racemic) [Compound 7, 1-{3-[2-(2-Fluorophenyl)pyrazolo[1,5-a]pyridin-5-yl]phenyl}prop-2-yn-1-ol], the melting point lay within 157 to 159 °C.

Molecule `C#CC(O)c1cccc(-c2ccn3nc(-c4ccc(C)cc4)cc3c2)c1` (racemic) [Compound 8, 1-[3-(2-{p-Tolyl}pyrazolo[1,5-a]pyridin-5-yl)phenyl]prop-2-yn-1-ol] displayed a melting point of 183 to 185 °C.

Regarding `C#CC(O)c1cccc(-c2ccn3nc(-c4ccc(F)cc4)cc3c2)c1` (single isomer, unassigned; (+)) [Compound 10, (+)-1-{3-[2-(4-Fluorophenyl)pyrazolo[1,5-a]pyridin-5-yl]phenyl}prop-2-yn-1-ol], the melting point was 139 to 141 °C.

In turn, `C#CC(C)(O)c1cccc(-c2ccn3nc(-c4ccc(F)cc4)cc3c2)c1` (single isomer, unassigned; (+)) [Compound 12, (+)-2-{3-[2-(4-Fluorophenyl)pyrazolo[1,5-a]pyridin-5-yl]phenyl}but-3-yn-2-ol] gave a melting point of 126 to 128 °C.

For `C#CC(O)c1cccc(-c2ccn3nc(-c4ccc(F)cc4)cc3c2)c1` (single isomer, unassigned; (-)) [Compound 9, (−)-1-{3-[2-(4-Fluorophenyl)pyrazolo[1,5-a]pyridin-5-yl]phenyl}prop-2-yn-1-ol], the melting point was in the range of 147 to 149 °C.

`C#CC(C)(O)c1cccc(-c2ccn3nc(-c4ccc(F)cc4)cc3c2)c1` (single isomer, unassigned; (-)) [Compound 11, (−)-2-{3-[2-(4-Fluorophenyl)pyrazolo[1,5-a]pyridin-5-yl]phenyl}but-3-yn-2-ol] showed a melting point of 122 to 124 °C.

A word on the EC50: it is the concentration at which the effect is half-maximal. Higher therefore signals lower potency in that assay. A word on the melting point: it is the temperature of the solid-liquid transition.
